Source: ChEMBL document CHEMBL5352478, “Novel pyridine-containing histone deacetylase inhibitors strongly arrest proliferation, induce apoptosis and modulate miRNAs in cancer cells” (Eur J Med Chem, 2023)
“And” between values parts separate entries of the source, which are not always exact repeats. Equal values may be shown once.

Experiments:
[1] = target: T1, Protein deacetylase HDAC6 (Homo sapiens, UniProt Q9UBN7); conditions: read-out: IC50
T1 sequence (Q9UBN7 whole entry): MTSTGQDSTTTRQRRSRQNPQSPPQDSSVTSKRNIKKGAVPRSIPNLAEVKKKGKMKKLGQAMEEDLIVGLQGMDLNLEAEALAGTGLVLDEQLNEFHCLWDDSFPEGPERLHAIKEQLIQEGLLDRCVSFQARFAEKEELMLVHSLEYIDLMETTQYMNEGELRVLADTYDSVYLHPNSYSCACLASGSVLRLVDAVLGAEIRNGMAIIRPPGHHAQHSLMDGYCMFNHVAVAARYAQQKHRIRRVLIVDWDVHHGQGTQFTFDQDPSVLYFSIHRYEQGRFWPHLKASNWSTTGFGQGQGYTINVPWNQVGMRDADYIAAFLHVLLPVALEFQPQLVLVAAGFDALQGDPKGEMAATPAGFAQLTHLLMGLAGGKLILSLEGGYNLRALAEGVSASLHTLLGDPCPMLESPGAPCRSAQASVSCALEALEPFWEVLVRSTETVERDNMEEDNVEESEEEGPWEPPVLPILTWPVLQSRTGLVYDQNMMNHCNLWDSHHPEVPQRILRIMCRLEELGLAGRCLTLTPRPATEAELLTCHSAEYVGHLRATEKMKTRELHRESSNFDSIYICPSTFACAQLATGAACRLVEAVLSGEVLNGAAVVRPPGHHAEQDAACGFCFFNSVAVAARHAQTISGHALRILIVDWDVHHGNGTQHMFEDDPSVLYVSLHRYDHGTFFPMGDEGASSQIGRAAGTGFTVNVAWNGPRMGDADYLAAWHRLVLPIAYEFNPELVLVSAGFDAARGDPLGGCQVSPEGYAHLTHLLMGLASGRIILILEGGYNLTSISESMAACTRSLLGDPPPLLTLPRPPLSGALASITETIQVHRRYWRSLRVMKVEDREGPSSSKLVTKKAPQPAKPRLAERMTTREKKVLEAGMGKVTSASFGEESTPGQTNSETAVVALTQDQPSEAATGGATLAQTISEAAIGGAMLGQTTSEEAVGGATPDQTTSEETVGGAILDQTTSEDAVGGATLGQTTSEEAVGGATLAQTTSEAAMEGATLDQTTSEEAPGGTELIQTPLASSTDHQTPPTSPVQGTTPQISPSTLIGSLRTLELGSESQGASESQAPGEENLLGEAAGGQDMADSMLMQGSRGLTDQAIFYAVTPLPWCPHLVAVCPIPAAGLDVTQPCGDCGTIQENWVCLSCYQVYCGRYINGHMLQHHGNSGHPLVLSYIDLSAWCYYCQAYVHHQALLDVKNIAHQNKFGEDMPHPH

[2] = tested on: HCT-116; test: cells; format: functional, cell-based; conditions: Homo sapiens, HCT-116, 72 h
[3] = tested on: A549; test: cells; format: functional, cell-based; conditions: Homo sapiens, A549, 72 h
[4] = tested on: K562; test: cells; format: functional, cell-based; conditions: Homo sapiens, K562, 72 h
[5] = tested on: K562; test: Potency index, ratio of SAHA IC50 to test compound IC50 for antiproliferative activity against human K562 cell; format: functional
[6] = tested on: U-937; test: Induction of cell cycle arrest in human U-937 cells assessed as accumulation of cells in pre-G1 phase at 5 uM for 24 hrs by PI staining based flow cytometric analysis; format: functional
[7] = tested on: U-937; test: Induction of cell cycle arrest in human U-937 cells assessed as accumulation of cells in pre-G1 phase at 1 uM for 48 hrs by PI staining based flow cytometric analysis; format: functional
[8] = tested on: U-937; test: Induction of cell cycle arrest in human U-937 cells assessed as accumulation of cells in pre-G1 phase at 5 uM for 48 hrs by PI staining based flow cytometric analysis; format: functional
[9] = tested on: U-937; test: Induction of cell cycle arrest in human U-937 cells assessed as cell death at 5 uM for 48 hrs by PI staining based flow cytometric analysis; format: functional
[10] = tested on: U-937; test: Induction of cell cycle arrest in human U-937 cells assessed as accumulation of cells in G2/M phase at 1 uM for 24 hrs by PI staining based flow cytometric analysis; format: functional
[11] = tested on: U-937; test: Induction of cell cycle arrest in human U-937 cells assessed as accumulation of cells in G1 phase at 1 to 5 uM for 48 hrs by PI staining based flow cytometric analysis; format: functional; conditions: dose 1-5 µM
[12] = target: Histone deacetylase 1 (Homo sapiens, UniProt Q13547)
[13] = target: Histone deacetylase 3 (Homo sapiens, UniProt O15379)
[14] = target: Histone deacetylase 4 (Homo sapiens, UniProt P56524)
[15] = target: Histone deacetylase 2 (Homo sapiens, UniProt Q92769)
[16] = target: Histone deacetylase 5 (Homo sapiens, UniProt Q9UQL6)
[17] = target: T2, Polyamine deacetylase HDAC10 (Homo sapiens, UniProt Q969S8)
T2 sequence (Q969S8 whole entry): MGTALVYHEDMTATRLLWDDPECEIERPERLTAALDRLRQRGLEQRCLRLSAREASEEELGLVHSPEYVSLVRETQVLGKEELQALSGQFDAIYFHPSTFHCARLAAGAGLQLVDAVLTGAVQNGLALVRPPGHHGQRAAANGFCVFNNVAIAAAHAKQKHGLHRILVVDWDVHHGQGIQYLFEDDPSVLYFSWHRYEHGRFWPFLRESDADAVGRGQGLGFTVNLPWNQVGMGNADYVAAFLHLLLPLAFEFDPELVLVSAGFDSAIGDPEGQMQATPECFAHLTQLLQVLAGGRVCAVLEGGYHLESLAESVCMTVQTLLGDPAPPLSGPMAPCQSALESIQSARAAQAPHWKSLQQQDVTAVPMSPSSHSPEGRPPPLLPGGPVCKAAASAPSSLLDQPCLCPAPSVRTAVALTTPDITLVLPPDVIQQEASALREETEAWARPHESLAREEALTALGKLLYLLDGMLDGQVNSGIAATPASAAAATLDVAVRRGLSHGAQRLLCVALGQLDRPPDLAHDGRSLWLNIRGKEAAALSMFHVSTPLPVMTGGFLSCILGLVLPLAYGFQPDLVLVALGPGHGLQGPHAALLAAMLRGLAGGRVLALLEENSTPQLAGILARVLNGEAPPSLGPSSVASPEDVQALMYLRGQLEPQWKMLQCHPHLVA

[18] = tested on: OCI-AML-3; test: Antiproliferative activity against human OCI-AML-3 cells incubated for 48 hrs; format: functional, cell-based; conditions: OCI-AML-3, 48 h
[19] = Antiproliferative activity against human IMS-M2 cells incubated for 48 hrs; format: functional, cell-based; conditions: IMS-M2, 48 h
[20] = tested on: OCI-AML2; test: Antiproliferative activity against human OCI-AML2 cells incubated for 48 hrs; format: functional, cell-based; conditions: OCI-AML2, 48 h
[21] = tested on: MV4-11; test: Antiproliferative activity against human MV4-11 cells incubated for 48 hrs; format: functional, cell-based; conditions: MV4-11, 48 h
[22] = tested on: Kasumi 1; test: Antiproliferative activity against human Kasumi 1 cells incubated for 48 hrs; format: functional, cell-based; conditions: Kasumi 1, 48 h
[23] = tested on: U-937; test: Antiproliferative activity against human U-937 cells incubated for 48 hrs; format: functional, cell-based; conditions: U-937, 48 h
[24] = tested on: HL-60; test: Antiproliferative activity against human HL-60 cells incubated for 48 hrs; format: functional, cell-based; conditions: HL-60, 48 h
[25] = tested on: KARPAS-299; test: Antiproliferative activity against human KARPAS-299 cells incubated for 48 hrs; format: functional, cell-based; conditions: KARPAS-299, 48 h
[26] = tested on: NB-4; test: Antiproliferative activity against human NB4 cells incubated for 48 hrs; format: functional, cell-based; conditions: NB-4, 48 h
[27] = target: T3, Histone deacetylase 8 (Homo sapiens, UniProt Q9BY41)
T3 sequence (Q9BY41 whole entry): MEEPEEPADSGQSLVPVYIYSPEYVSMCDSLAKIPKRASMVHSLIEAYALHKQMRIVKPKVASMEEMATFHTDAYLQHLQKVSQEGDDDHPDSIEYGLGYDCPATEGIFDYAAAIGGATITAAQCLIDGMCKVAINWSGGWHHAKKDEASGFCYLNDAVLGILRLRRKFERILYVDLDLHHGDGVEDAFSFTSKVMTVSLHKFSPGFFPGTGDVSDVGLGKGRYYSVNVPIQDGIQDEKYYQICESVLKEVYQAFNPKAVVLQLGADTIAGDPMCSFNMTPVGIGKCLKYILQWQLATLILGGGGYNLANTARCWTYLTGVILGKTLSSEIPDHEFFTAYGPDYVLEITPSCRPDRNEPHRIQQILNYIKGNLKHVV

[28] = target: T4, Histone deacetylase 7 (Homo sapiens, UniProt Q8WUI4)
T4 sequence (Q8WUI4 whole entry): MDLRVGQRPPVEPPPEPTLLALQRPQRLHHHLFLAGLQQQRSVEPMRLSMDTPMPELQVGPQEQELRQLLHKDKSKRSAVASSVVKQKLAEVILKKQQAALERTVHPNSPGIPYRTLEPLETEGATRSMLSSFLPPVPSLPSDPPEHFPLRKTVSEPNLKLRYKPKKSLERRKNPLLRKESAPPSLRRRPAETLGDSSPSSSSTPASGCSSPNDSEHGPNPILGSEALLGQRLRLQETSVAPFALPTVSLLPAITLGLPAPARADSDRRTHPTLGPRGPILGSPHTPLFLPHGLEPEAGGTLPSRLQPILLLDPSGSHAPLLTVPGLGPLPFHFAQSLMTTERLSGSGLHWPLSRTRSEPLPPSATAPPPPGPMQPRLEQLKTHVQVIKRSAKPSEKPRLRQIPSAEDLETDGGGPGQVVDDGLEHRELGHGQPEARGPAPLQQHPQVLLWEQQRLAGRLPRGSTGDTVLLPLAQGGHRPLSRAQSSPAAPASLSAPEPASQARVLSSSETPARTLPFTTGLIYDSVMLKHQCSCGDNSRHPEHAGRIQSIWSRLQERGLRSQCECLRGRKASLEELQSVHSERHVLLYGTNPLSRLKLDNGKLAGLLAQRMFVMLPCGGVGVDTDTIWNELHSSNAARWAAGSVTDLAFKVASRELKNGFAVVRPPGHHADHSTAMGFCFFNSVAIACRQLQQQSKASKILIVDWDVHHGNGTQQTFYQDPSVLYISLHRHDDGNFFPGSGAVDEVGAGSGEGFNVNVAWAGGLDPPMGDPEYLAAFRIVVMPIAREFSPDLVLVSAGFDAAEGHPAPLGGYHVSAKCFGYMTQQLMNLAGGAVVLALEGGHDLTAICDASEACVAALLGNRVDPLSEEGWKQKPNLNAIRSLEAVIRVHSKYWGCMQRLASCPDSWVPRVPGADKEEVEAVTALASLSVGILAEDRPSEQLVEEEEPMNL

[29] = target: Histone deacetylase 9 (Homo sapiens, UniProt Q9UKV0)
[30] = target: T5, Histone deacetylase 11 (Homo sapiens, UniProt Q96DB2)
T5 sequence (Q96DB2 whole entry): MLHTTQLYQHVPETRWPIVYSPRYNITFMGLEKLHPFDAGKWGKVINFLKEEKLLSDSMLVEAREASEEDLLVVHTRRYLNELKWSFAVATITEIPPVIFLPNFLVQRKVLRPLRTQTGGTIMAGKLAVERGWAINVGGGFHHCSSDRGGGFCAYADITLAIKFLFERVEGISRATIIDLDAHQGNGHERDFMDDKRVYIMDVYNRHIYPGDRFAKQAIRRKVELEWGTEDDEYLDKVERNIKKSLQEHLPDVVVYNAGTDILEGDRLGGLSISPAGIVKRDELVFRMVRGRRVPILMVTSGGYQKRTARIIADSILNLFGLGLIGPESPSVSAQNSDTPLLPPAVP

Chain of Histone deacetylase 2 (Q92769 whole entry): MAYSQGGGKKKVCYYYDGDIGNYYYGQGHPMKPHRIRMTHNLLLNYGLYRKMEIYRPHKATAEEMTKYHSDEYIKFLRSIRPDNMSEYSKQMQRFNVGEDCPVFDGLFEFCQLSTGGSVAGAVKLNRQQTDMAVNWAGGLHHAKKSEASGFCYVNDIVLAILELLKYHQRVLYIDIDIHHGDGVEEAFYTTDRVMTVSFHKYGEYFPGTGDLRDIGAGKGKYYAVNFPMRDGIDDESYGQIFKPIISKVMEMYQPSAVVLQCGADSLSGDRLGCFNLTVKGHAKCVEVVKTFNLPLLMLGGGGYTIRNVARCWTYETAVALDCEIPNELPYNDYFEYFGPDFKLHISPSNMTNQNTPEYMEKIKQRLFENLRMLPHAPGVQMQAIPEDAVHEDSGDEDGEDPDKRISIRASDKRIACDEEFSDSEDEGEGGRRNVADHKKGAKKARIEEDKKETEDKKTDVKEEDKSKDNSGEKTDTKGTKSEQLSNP
Chain of Histone deacetylase 1 (Q13547 whole entry): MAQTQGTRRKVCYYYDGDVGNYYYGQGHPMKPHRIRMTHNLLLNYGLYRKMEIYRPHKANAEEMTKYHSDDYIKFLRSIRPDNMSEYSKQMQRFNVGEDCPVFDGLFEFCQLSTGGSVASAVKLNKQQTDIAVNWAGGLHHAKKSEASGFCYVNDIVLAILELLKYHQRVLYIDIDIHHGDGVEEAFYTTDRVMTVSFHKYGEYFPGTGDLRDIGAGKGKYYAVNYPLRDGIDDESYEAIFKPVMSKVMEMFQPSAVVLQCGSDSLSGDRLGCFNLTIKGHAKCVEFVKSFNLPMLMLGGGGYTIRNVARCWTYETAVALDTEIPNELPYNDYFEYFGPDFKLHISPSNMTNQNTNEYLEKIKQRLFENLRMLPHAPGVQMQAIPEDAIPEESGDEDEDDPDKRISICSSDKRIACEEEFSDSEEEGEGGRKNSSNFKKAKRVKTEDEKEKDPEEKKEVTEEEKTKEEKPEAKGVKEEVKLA
Chain of Histone deacetylase 9 (Q9UKV0 whole entry): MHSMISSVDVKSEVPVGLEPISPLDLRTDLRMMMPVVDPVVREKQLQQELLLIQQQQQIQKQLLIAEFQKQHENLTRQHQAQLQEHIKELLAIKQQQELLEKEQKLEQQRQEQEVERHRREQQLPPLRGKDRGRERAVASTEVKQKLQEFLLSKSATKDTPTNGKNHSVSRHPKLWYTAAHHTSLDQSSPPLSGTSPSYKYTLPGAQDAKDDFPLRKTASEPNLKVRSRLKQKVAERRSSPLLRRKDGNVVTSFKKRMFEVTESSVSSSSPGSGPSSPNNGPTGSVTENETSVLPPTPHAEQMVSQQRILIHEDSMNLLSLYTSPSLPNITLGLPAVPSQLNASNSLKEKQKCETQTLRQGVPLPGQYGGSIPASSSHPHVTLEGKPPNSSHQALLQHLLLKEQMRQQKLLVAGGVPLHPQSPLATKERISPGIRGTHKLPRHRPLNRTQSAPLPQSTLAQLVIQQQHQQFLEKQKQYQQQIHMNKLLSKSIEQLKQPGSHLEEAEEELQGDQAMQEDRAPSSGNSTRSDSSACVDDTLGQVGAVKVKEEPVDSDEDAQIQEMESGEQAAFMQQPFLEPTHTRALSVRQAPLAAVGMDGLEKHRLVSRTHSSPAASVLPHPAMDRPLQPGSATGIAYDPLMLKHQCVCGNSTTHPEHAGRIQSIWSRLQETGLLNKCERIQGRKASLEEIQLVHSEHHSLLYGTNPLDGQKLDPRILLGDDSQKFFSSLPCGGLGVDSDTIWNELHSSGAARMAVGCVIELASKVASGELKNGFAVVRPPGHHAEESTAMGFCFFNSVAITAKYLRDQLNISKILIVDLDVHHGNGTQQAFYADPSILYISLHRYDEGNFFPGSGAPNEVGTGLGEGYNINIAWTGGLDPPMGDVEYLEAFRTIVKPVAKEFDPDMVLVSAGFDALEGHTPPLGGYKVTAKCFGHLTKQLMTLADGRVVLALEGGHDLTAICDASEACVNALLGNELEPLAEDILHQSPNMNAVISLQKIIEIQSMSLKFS
Chain of Histone deacetylase 4 (P56524 whole entry): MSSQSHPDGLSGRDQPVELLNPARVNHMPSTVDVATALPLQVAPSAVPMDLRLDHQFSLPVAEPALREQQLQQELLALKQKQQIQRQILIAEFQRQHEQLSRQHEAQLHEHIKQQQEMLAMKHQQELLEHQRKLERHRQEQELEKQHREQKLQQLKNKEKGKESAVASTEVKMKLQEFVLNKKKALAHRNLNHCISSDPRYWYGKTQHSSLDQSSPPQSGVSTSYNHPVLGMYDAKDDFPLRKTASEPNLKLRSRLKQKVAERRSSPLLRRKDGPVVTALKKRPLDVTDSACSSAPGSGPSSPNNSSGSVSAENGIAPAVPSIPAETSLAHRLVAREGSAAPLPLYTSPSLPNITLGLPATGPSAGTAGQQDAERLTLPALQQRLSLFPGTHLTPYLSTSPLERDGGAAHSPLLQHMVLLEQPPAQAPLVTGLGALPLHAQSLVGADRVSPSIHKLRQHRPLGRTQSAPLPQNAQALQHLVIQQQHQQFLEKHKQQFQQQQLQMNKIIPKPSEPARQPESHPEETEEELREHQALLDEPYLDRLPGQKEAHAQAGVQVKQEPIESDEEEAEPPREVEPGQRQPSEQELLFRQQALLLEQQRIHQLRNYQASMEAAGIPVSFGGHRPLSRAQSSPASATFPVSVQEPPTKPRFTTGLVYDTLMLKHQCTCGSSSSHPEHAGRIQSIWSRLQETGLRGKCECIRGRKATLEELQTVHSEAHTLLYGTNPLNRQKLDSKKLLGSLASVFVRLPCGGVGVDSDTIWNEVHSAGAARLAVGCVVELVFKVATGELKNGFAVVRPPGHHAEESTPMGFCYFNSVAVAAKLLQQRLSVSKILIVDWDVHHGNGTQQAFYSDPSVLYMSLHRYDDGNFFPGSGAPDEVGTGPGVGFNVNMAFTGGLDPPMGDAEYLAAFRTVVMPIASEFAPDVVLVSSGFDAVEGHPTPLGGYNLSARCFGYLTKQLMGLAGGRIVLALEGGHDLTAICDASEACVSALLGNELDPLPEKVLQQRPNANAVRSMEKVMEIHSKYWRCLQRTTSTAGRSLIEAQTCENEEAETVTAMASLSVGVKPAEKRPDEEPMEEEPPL
Chain of Histone deacetylase 5 (Q9UQL6 whole entry): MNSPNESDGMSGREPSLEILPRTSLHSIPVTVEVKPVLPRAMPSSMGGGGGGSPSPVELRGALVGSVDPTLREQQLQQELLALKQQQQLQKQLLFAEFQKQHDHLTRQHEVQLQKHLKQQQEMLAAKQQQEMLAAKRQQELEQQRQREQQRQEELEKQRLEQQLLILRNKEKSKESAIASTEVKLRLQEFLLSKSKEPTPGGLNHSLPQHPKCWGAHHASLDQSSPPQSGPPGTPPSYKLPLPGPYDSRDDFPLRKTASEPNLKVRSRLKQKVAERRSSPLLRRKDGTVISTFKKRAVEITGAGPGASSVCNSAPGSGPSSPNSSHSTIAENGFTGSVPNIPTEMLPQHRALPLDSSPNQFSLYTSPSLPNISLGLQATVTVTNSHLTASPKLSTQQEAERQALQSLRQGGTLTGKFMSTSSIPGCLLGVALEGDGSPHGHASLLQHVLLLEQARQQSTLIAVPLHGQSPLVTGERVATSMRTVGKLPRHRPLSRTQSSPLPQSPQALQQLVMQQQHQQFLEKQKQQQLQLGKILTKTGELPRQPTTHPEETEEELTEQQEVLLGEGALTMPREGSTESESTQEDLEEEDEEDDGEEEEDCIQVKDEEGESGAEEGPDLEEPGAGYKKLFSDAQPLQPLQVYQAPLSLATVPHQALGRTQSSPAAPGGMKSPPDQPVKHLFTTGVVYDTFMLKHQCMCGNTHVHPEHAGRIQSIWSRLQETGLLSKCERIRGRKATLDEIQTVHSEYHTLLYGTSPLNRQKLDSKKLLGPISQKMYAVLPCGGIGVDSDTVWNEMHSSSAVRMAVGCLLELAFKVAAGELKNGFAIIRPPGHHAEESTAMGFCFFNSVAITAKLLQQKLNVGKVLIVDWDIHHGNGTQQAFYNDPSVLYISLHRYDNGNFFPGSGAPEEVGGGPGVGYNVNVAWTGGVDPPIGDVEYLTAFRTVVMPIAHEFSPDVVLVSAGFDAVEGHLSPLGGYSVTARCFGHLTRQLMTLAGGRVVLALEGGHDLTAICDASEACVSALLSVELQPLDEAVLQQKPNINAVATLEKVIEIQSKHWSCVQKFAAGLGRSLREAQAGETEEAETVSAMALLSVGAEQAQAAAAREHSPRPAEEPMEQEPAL
Chain of Histone deacetylase 3 (O15379 whole entry): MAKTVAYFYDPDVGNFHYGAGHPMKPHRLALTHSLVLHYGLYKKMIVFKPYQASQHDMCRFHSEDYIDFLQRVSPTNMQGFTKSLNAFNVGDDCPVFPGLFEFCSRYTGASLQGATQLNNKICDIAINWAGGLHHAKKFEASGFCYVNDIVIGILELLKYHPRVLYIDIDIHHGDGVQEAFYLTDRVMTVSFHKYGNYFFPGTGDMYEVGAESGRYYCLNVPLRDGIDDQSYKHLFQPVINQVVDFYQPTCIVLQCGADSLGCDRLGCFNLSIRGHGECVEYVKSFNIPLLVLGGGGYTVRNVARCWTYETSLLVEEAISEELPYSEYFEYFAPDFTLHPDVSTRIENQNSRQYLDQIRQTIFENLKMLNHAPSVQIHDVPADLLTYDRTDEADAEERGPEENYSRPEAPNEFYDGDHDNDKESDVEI

SMILES: O=C(/C=C/c1ccc(NC(=O)C(Cc2ccccc2)c2ccccc2)cn1)NO (configuration not stated)
- IC50 [1]: 11 nM
- IC50 [2]: 70 nM
- IC50 [3]: 220 nM
- IC50 [4]: 40 nM
- Ratio IC50 [5]: 10
- Activity [6]: 10%
- Activity [7]: 40%
- Activity [8]: 40%
- Activity [9]: 76%
- Activity [10]: 60%
- Activity [11]: 70%

SMILES: Nc1ccccc1NC(=O)c1ccc(NC(=O)Cc2ccc3ccccc3c2)cn1
- IC50 [12]: 189 nM
- IC50 [13]: 440 nM
- IC50 [14]: Not Active
- IC50 [15]: 227 nM
- IC50 [16]: Not Active
- IC50 [17]: 446 nM
- IC50 [2]: 430 nM
- IC50 [3]: 1280 nM
- IC50 [4]: 370 nM
- Activity [6]: 10%
- Activity ([8]; 48 h, 5 µM): 50% and 30%
- Activity [9]: 100%
- Activity [11]: 70%
- IC50 [18]: 4140 nM
- IC50 [19]: 155 nM
- IC50 [20]: 1500 nM
- IC50 [21]: 170 nM
- IC50 [22]: 257 nM
- IC50 [23]: 822 nM
- IC50 [24]: 218 nM
- IC50 [25]: 9270 nM
- IC50 [26]: 210 nM
- IC50 [27]: Not Active
- IC50 [28]: Not Active
- IC50 [29]: Not Active
- IC50 [30]: Not Active
